Data from patent US9795585B2, “Methods of using L-butylphthalide for the prevention and treatment of cerebral ischemia disease” (priority 2004, dated 2017).

How the values were obtained:
[1] = test system: ischemic brain of decapitated mice; assay: Ischemic cerebral metabolism of energy induced by decapitation of mice; format: in vivo, KunMing mice; details: NBP 50 and 100 mg/kg oral, sodium Phenobarbital 225 mg/kg ip.; decapitated 30 minutes after administration; 15 seconds ischemia; vs control group
Experimental: Experimental Animals: KunMing mice.
Test drug: injectable L-butylphthalide was formulated into an emulsion with Tween-80.
Experimental Methods: KunMing mice of 10 to 22 g were divided into 8 groups with 10 mice per group. dl-, d-, and l-NBP (50 and 100 mg/kg/d), sodium Phenobarbital (225 mg/kg ip.) and the vehicle were orally administered. Thirty minutes after administration, the mice were decapitated.
The time between the decapitation and homogenation, which was 15 seconds, was regarded as cerebral ischemic time. Centrifugation and isolation were conducted by the method of Folbergrova, and the contents of lactic acid, ATP and PCr were determined by enzymological method.

[2] = test system: permanent cerebral ischemic rats; assay: Behavioral disorder and cerebral infarct area in permanent cerebral ischemic rats (FeCl3 on middle cerebral artery); format: in vivo, Wistar rats
Experimental: Experimental Animal: The same as Example 1. Experimental Equipments: COOLPIX955 digital camera, 722 grating spectroscope, XHF-1 high-speed disperser, YKH-II liquid high-speed mixer, WZ-50C2 micro infusion pump. Experimental Methods: Wistar rats were anesthetized by intraperitoneally injecting 12% chloral hydrate in 350 mg/kg, and fixed in lateral decubitus position. The skin at the midpoint on the line from exterior auditory canal to canthus was cut. The muscle was separated layer by layer to expose zygomatic arch and the squamous part of temporal bone. The zygomatic arch was scissored and then placed under an operating microscope. A window of 2 mm diameter was drilled by using a dentistry drill at a position of 2 mm under the anterior joint between zygomatic arch and the squamous part of temporal bone, so as to expose the middle cerebral artery. A little piece of filter paper was applied onto the middle artery, and 10 μl of 50% FeCl3 aqueous solution was dripped onto the filter paper. The filter paper was removed after 30 min, and washed with physiological brine. Two to three drops of penicillin (1.6×10^5 U/mL) were added so as to prevent infection of the cut. Then the cut was sutured layer by layer.

[3] = test system: cerebral injury-induced cerebral ischemia in rats; assay: Neural symptoms induced by cerebral injury in rats; format: in vivo, male Wistar rats; details: 50 mg/kg oral 5 minutes after cerebral injury; scored after 24 hours; vs vehicle control
Experimental: Experimental Animals: male Wistar rats
Experimental Methods: Cerebral injury in rats was caused by allowing a cone-shaped metal object weighing 220 g to freely fall from a position of 30 cm height and to strike the skull cap behind the left coronal suture. dl-, d-, and l-NBP (50 mg/kg) and the vehicle (control group) were orally administered after 5 minutes, and the behavioral changes were scored after 24 hours.

[4] = test system: cerebral edema induced by cerebral artery ligation in rats; assay: Cerebral edema induced by ligation of right middle cerebral artery; format: in vivo, male Wistar rats; details: 40 and 80 mg/kg oral 15 minutes after ligation; sacrificed after 24 hours
Experimental: Experimental Animals: the same as Example 1. Experimental Equipments: Oxygen analyzer. Experimental Methods: Cerebral edema was induced by the ligation of right middle cerebral artery of rats. After 15 minutes, dl-, d-, and l-NBP (40 and 80 mg/kg) were orally administered. The rats were sacrificed after 24 hours. The forebrain was removed, and the cerebral hemispheres on the left and right side were weighed. Dry weight was obtained by baking for 24 hours under 100° C. The weight of water in the brain tissue was thus calculated by subtracting of dry weight from wet weight. Then, the tissues was nitrified for 4 hours, and pH was adjusted by using HCl. Next, the ion selective electrode was connected onto the oxygen analyzer, and the concentrations of Na^+ and K^+ in the brain tissue were measured.

normal rats = format: in vivo, Male wistar rats; details: 15 and 30 mg/kg oral; 30 minutes after administration
Experimental: Experimental Animals: Male wistar rats.
Experimental Equipments: SXP operating microscope, 62TZ-V model high frequency electrotome, solid positioner, Diamond Electro-Tech chemical microsensor 1231, two channel physiological parameter recorder.
Experimental Methods: • (1) dl-, d-, and l-NBP (15 and 30 mg/kg) and the vehicle were orally administered to the normal rats, and the changes of cerebral blood flow at different time after the administration were measured. • (2) ligation of cerebral artery was conducted on rats according to the method of Tamura. Oral administration was performed at 10 min after the operation. The rats were divided into 9 groups, which were normal group, pseudo-operation group, vehicle control group, and groups of dl-, d-, and l-NBP (15 and 30 mg/kg).

[5] = test system: cerebral apoplexy in spontaneous hypertension rats; assay: Cerebral apoplexy in salt-loaded spontaneous hypertensive rats; format: in vivo; details: 25 and 50 mg/kg/d oral
Experimental: Experimental Animals: spontaneous hypertensive rats of 6 weeks old. Experimental Methods: Spontaneous hypertensive rats of 6 weeks old were divided into 8 groups with 10 rats per group. 0.8 to 0.9 g per day of common salt was administered starting from week 6. […] The scores of neurological deficit and the time of death were recorded.

[6] = test system: focal cerebral ischemia in rats; assay: Memory disorder induced by focal cerebral ischemia (shuttle box, artery ligation by method of Tamura); format: in vivo, male Wistar rats; details: 15 and 30 mg/kg oral 15 min after operation; observed after 24 hours; vs vehicle control
Experimental: Experimental Animal: The same as Example 1. Experimental Equipment: Shuttle box. Experimental Methods: • 1. Rats were trained to acquire learning and memory; • 2. Artery ligation: Artery ligation was conducted on rats according to the method of Tamura. After 24 hours, the experiment of learning as in step (1) was repeatedly conducted on rats. • 3. Grouping and administration: the rats were divided into 9 groups, which were normal group, pseudo-operation group, ischemia control group, and groups of dl-, d-, and l-NBP (15 and 30 mg/kg). The rats were orally administered at 15 min after the operation, and the changes of latency of active and passive avoidance response were observed after 24 hours.

[7] = test system: cerebral ischemia-reperfusion rats; assay: Behavioral disorder and cerebral infarct area in cerebral ischemia-reperfusion rats (MCAO by nylon suture, 1.5 h); format: in vivo, male Wistar rats
Source text: Experimental Animal: The same as Example 1
Experimental Equipments: The same as Example 7
Experimental Methods: The rats were anesthetized, and fixed in lateral decubitus position. Under the operating microscope, a midline neck skin incision was made to expose the left common cartotid artery. The surrounding nerves and fascia from the bifurcation of common carotid artery to the vascular of basis cranii were removed.
The internal carotid artery was then separated and carefully separated free from vagus nerve. Pterygopalatine artery was ligated at the root of the internal carotid artery. A 6# needle for injection containing 3# nylon suture (diameter of 0.285 mm) was punctured into the free end of the external carotid artery, advancing the nylon suture into the blood vascular. The needle was carefully withdrawn, and the nylon suture was guided into the internal carotid artery from the distal end of the external carotid artery up till to Willis ring, so as to effectively block the middle cerebral artery.
Depending on the body weight, the distance from the inserted nylon suture to the bifurcation of common carotid artery was 18 to 20 mm. The free end of the external carotid artery and the nylon suture therein were ligated together, in order to prevent bleeding. The muscle and the skin were then sutured layer by layer, and penicillin was dropped to prevent infection. To effectively block the middle cerebral artery, the tip of the nylon suture was made round by burning with the flame, and coated with 0.1% of poly-L-lysine. The nylon suture was baked in a 60° C. oven for 1 hour.
Due to the ability of poly-L-lysine to binding the cell and the protein to the plastic surface, and thus allow the negative charged nylon suture changing into a positive charged one and attract the anion ionic part of the endothelial cell, the nylon suture was closely bond to the endothelial surface, so as to prevent the leakage of the blood from the surrounding of the suture. Only the internal carotoid artery was separated from the animals of pseudo-operation group.
At 1.5 hours after the initiation of MCAO, the nylon suture within the lumen of the internal carotoid artery was carefully withdrawn, and the internal carotoid artery was allowed to reperfusion. The rats were then placed back into the cage.

[8] = 24 hours after intravenous injection

CCC1(c2ccccc2)C(=O)NC(=O)NC1=O [sodium Phenobarbital]
content of ATP in the brain [1]: increased
content of PCr in the brain [1]: increased
content of lactic acid in the brain [1]: significantly decreased

CCCC[C@H]1OC(=O)c2ccccc21 [d-NBP, dextro-butylphthalide]
cerebral infarct area (effect in words) ([2]; 2.5 mg/kg, tendency of reducing): not significant
reduction of cerebral infarct area ([2]; first of three doses, vs model control group): 27.2%
decrease of neurological deficit scores ([2]; high dose, i.v., 24 hours after administration): 28.1%
ED30 (neurological deficit scores) ([2]; i.v., 24 hours after administration): 12.4 mg/kg
neurological deficit scores (effect in words) ([2]; intravenous injection, vs model control group): improvement
decrease of neurological deficit scores ([2]; low dose, i.v., 24 hours after administration): 17.2%
decrease of neurological deficit scores ([2]; moderate dose, i.v., 24 hours after administration): 21.9%
reduction of cerebral infarct area ([2]; second of three doses, vs model control group): 32.7%
reduction of cerebral infarct area ([2]; third of three doses, vs model control group): 39.9%
ED40 (cerebral infarct area) ([2]; vs model control group): 10.3 mg/kg
neural symptoms (behavioral changes scored) [3]: no significant effect
content of K+ in the brain [4]: no significant effect
content of Na+ in the brain [4]: no significant effect
content of water in the brain [4]: no significant effect
cerebral blood flow rate in normal rats (normal rats): no such effects
preventive and therapeutic effect on cerebral apoplexy (overall) [5]: not significant
content of ATP in the brain [1]: no such significant effect
content of PCr in the brain [1]: no such significant effect
content of lactic acid in the brain [1]: no such significant effect
times of active avoidance [6]: not observed
neurological deficit scores (effect in words) [7, 8]: improvement
potency on neurological deficit scores compared among l, dl and d-NBP [7, 8]: no significant difference
cerebral infarct area (effect in words) ([7]; intravenous administration, effect increases with dose): significantly reduce
